# Reference: patent publication US9451771B2, “Compositions and methods to attract the brown marmorated stink bug (BMSB), Halyomorpha halys” (United States of America as Represented by the Secretary of …, priority 2012, dated 2016)
# Test system: brown marmorated stink bug (BMSB), Halyomorpha halys
# Experiment: Synergy trials for attraction of BMSB to #10 and MDT, black pyramid traps
# Format: in vivo
# Method: Synergy trials for attraction of BMSB to #10 and methyl (2E,4E,6Z)-decatrieonate (MDT): From 6 Apr. to 23 Oct. […] Va. (3 replicates), we tested the following four treatments for attraction of BMSB adults and nymphs, using a full-sized black pyramid trap adapted for BMSB (see above): (1) #10 lure (Table 4) replaced every 2 weeks; (2) #3 lure, MDT, (Sterling International, Spokane, Wash.; ˜119 mg loading; see text below), replaced every 4 weeks; (3) #14 lure, in which #10 and MDT lures hung together in trap, replaced as above for each lure; and (4) no lure (control).
# The MDT lure obtained from Sterling International was extracted with pentane which yielded 420 mg of crude product. According to TLC analysis on silica using dichloromethane, the extracted material contained MTD (Rf 0.46) plus unknown chemical(s) with Rf 0.20. This material was flash chromatographed on silica with hexane:dichloromethane, 1:1, to obtain 119 mg of pure MDT. The identity of MDT was re-confirmed by comparison of the gas chromatographic retention time and mass-spectrum with those of a standard prepared according to Khrimian (Khrimian, A., Tetrahedron, 61: 3651-3657 (2005)).
# Traps were checked and collected twice-weekly in Beltsville, and weekly in Arden, as described previously, and the treatments were re-randomized at each collection. Field trapping results were summed by approximately two-week intervals, and the totals for each replicate analyzed by ANOVA and additionally with Tukey's HSD multiple comparisons at α=0.05 if the overall 1-way ANOVA F-test was significant at α=0.05. In addition, a two-way ANOVA with interaction was tested to determine if the combined lure provoked a different level of attractiveness (a significant interaction) than would be expected from a combination of the attractiveness of each separate lure type. Such an interaction, with numbers exceeding the expected attraction for the combined lure, represents a true synergy of the two lures.
# [1] = Arden, WV 2012, 15May-23 Oct, TOTAL
# [2] = Arden, WV 2012, Aug2-13, 11-day total
# [3] = Arden, WV 2012, Aug13-27, 14-day total
# [4] = Arden, WV 2012, Aug27-Sep10, 14-day total
# [5] = Arden, WV 2012, July2-17, 15-day total
# [6] = Arden, WV 2012, July17-Aug2, 16-day total
# [7] = Arden, WV 2012, June4-19, 15-day total
# [8] = Arden, WV 2012, June19-July2, 13-day total
# [9] = Arden, WV 2012, May 16-23, 7-day total
# [10] = Arden, WV 2012, May23-Jun4, 14-day total
# [11] = Arden, WV 2012, Oct9-23, 14-day total
# [12] = Arden, WV 2012, Sep10-24, 14-day total
# [13] = Arden, WV 2012, Sep24-Oct9, 17-day total
# [14] = Arden, WV, 3 replicates, 20 May through 23 Oct. 2012
# [15] = Arden, WV, 20 May through 23 Oct. 2012
# [16] = Beltsville, MD 2012, 4-22 May, 18-day total, 4 traps/trtmt
# [17] = Beltsville, MD 2012, 5-19 June, 14-day total, 4 traps/trtmt
# [18] = Beltsville, MD 2012, 5-23Oct, 18-day total, 4 traps/trtmt
# [19] = Beltsville, MD 2012, 6-20 April, 14-day total, 4 traps/trtmt
# [20] = Beltsville, MD 2012, 6APR-23OCT, Total
# [21] = Beltsville, MD 2012, 6APR-23OCT, Total, 4 traps/trtmt
# [22] = Beltsville, MD 2012, 7-21 Sept, 14-day total, 4 traps/trtmt
# [23] = Beltsville, MD 2012, 10-24 Aug, 14-day total, 4 traps/trtmt
# [24] = Beltsville, MD 2012, 13-27 July
# [25] = Beltsville, MD 2012, 13-27 July, 14-day total, 4 traps/trtmt
# [26] = Beltsville, MD 2012, 19-29 June
# [27] = Beltsville, MD 2012, 19-29 June, 10-day total, 4 traps/trtmt
# [28] = Beltsville, MD 2012, 20 April-4 May, 14-day total, 4 traps/trtmt
# [29] = Beltsville, MD 2012, 21Sep-5 Oct
# [30] = Beltsville, MD 2012, 21Sep-5 Oct, 14-day total, 4 traps/trtmt
# [31] = Beltsville, MD 2012, 24Aug-7Sept
# [32] = Beltsville, MD 2012, 24Aug-7Sept, 14-day total, 4 traps/trtmt
# [33] = Beltsville, MD 2012, 27 July-10 Aug
# [34] = Beltsville, MD 2012, 27 July-10 Aug, 14-day total, 4 traps/trtmt
# [35] = Beltsville, MD 2012, 29 June-13 July
# [36] = Beltsville, MD 2012, 29 June-13 July, 14-day total, 4 traps/trtmt
# [37] = Beltsville, MD, 4 replicates, 6 April through 23 Oct. 2012
# [38] = Beltsville, MD, 6 April through 23 Oct. 2012
structure (smiles),measurement,setting,value
"CCC\C=C/C=C/C=C/C(=O)OC [Lure #3, Methyl (2E,4E,6Z)-decatrienoate]",adults captured,[1],999
same,adults captured (% of total),[1],17.9%
same,nymphs captured,[1],386
same,nymphs captured (% of total),[1],18.4%
same,adults captured (% of total),"Arden, WV 2012, Aug2-13",10.40%
same,nymphs captured (% of total),"Arden, WV 2012, Aug2-13",9.5%
same,adults captured,[2],7
same,nymphs captured,[2],38
same,adults captured (% of total),"Arden, WV 2012, Aug13-27",3.10%
same,nymphs captured (% of total),"Arden, WV 2012, Aug13-27",10.0%
same,adults captured,[3],4
same,nymphs captured,[3],51
same,adults captured (% of total),"Arden, WV 2012, Aug27-Sep10",1.60%
same,nymphs captured (% of total),"Arden, WV 2012, Aug27-Sep10",42.8%
same,adults captured,[4],3
same,nymphs captured,[4],68
same,adults captured (% of total),"Arden, WV 2012, July2-17",0%
same,nymphs captured (% of total),"Arden, WV 2012, July2-17",5.0%
same,adults captured,[5],0
same,nymphs captured,[5],8
same,adults captured (% of total),"Arden, WV 2012, July17-Aug2",0%
same,nymphs captured (% of total),"Arden, WV 2012, July17-Aug2",22.2%
same,adults captured,[6],0
same,nymphs captured,[6],8
same,adults captured (% of total),"Arden, WV 2012, June4-19",0%
same,adults captured,[7],0
same,nymphs captured,[7],0
same,adults captured (% of total),"Arden, WV 2012, June19-July2",0%
same,nymphs captured (% of total),"Arden, WV 2012, June19-July2",0%
same,adults captured,[8],0
same,nymphs captured,[8],0
same,adults captured (% of total),"Arden, WV 2012, May 16-23",0%
same,adults captured,[9],0
same,nymphs captured,[9],0
same,adults captured (% of total),"Arden, WV 2012, May23-Jun4",0%
same,adults captured,[10],0
same,nymphs captured,[10],0
same,adults captured (% of total),"Arden, WV 2012, Oct9-23",28.90%
same,nymphs captured (% of total),"Arden, WV 2012, Oct9-23",60.5%
same,adults captured,[11],120
same,nymphs captured,[11],20
same,adults captured (% of total),"Arden, WV 2012, Sep10-24",12.70%
same,nymphs captured (% of total),"Arden, WV 2012, Sep10-24",23.9%
same,adults captured,[12],333
same,nymphs captured,[12],135
same,adults captured (% of total),"Arden, WV 2012, Sep24-Oct9",25.20%
same,nymphs captured (% of total),"Arden, WV 2012, Sep24-Oct9",25.7%
same,adults captured,[13],532
same,nymphs captured,[13],58
same,Season-long total captures of BMSB adults,[14],999 b
same,Season-long total captures of BMSB nymphs,[14],386 b
same,"Season-long captures of BMSB adults, share of TOTAL",[15],17.9%
same,"Season-long captures of BMSB nymphs, share of TOTAL",[15],18.4%
same,adults captured (% of total),"Beltsville, MD 2012, 4-22 May",2.10%
same,adults captured,[16],2
same,nymphs captured,[16],0
same,adults captured (% of total),"Beltsville, MD 2012, 5-19 June",4.20%
same,nymphs captured (% of total),"Beltsville, MD 2012, 5-19 June",25.10%
same,adults captured,[17],6
same,nymphs captured,[17],63
same,adults captured (% of total),"Beltsville, MD 2012, 5-23Oct",17.50%
same,nymphs captured (% of total),"Beltsville, MD 2012, 5-23Oct",35.70%
same,adults captured,[18],6
same,nymphs captured,[18],5
same,adults captured (% of total),"Beltsville, MD 2012, 6-20 April",10.20%
same,adults captured,[19],6
same,nymphs captured,[19],0
same,adults captured (% of total),[20],10.40%
same,nymphs captured (% of total),[20],28.30%
same,adults captured,[21],1203
same,nymphs captured,[21],1823
same,adults captured (% of total),"Beltsville, MD 2012, 7-21 Sept",20.30%
same,nymphs captured (% of total),"Beltsville, MD 2012, 7-21 Sept",30.00%
same,adults captured,[22],314
same,nymphs captured,[22],36
same,adults captured (% of total),"Beltsville, MD 2012, 10-24 Aug",4.60%
same,nymphs captured (% of total),"Beltsville, MD 2012, 10-24 Aug",14.80%
same,adults captured,[23],7
same,nymphs captured,[23],212
same,adults captured (% of total),[24],0.00%
same,nymphs captured (% of total),[24],20.30%
same,adults captured,[25],0
same,nymphs captured,[25],13
same,adults captured (% of total),[26],0.00%
same,nymphs captured (% of total),[26],1.30%
same,adults captured,[27],0
same,nymphs captured,[27],6
same,adults captured (% of total),"Beltsville, MD 2012, 20 April-4 May",21.90%
same,adults captured,[28],7
same,nymphs captured,[28],0
same,adults captured (% of total),[29],27.90%
same,nymphs captured (% of total),[29],40.50%
same,adults captured,[30],440
same,nymphs captured,[30],17
same,adults captured (% of total),"Beltsville, MD 2012, 22 May-5 June",2.90%
same,nymphs captured (% of total),"Beltsville, MD 2012, 22May-5June",38.90%
same,adults captured,"Beltsville, MD 2012, 22 May-5 June, 14-day total, 4 traps/trtmt",3
same,nymphs captured,"Beltsville, MD 2012, 22May-5June, 14-day total, 4 traps/trtmt",7
same,adults captured (% of total),[31],22.20%
same,nymphs captured (% of total),[31],41.80%
same,adults captured,[32],393
same,nymphs captured,[32],1018
same,adults captured (% of total),[33],6.10%
same,nymphs captured (% of total),[33],30.80%
same,adults captured,[34],14
same,nymphs captured,[34],406
same,adults captured (% of total),[35],8.60%
same,nymphs captured (% of total),[35],14.50%
same,adults captured,[36],5
same,nymphs captured,[36],40
same,Season-long total captures of BMSB adults,[37],1203 b
same,Season-long total captures of BMSB nymphs,[37],1823 b
same,"Season-long captures of BMSB adults, share of TOTAL",[38],20.4%
same,"Season-long captures of BMSB nymphs, share of TOTAL",[38],28.3%
